Source: patent publication US7632863B2, “3,4,5,4′-tetramethoxyl-α,β-diphenylethane-3′-O-sodium sulphate and its use” (The Jian Cell Biomedical Research Co., Ltd., priority 2007, dated 2009)
Read-outs that look alike come from different tables or passages of the source.

Columns and labels:
S180 sarcoma [1] = settings: Dosage 1 mg/kg, i.v., S180 sarcoma-bearing mice
Excerpt: (§1) (1) Sample: 3,4,5,4′-tetramethoxyl-α,β-diphenylethane-3′-O-sodium sulphate (AS) provided by Zhejiang Cell Biomedical Research Co., Ltd., and prepared by the process in Example One. Dissolved by physiological saline for the concentration needed.
(2) Cisplatin: Cisplatin for injection (DDP), Qilu Pharmaceutical Co., Ltd. Batch No.: 5120282DC. Dissolved by physiological saline for preparation.
(3) Control product: Cyclophosphamide for injection (CTX), Jiangsu Hengrui Pharmaceutical Inc. Co. Batch No.: 04123021 Dissolved by physiological saline for preparation.
(§2) (1) KM mouse bearing S180 sarcoma.
(2) 70 KM mice, female, weighting 18-22 g, provided by Zhejing College of Traditional Chinese Medicine.
(1) Drawing ascites under aseptic condition from mouse bearing S180 sarcoma, diluting with physiologic saline 1:3, giving subcutaneous inoculation in the armpit of the right forelimb of the KM mice with 0.2 ml each; dividing the mice into 7 groups randomly the next day, 10 in each group.
(§3) (2) Administering drug to the mice by weight the third day of inoculation, intravenous administration 0.5 ml/20 g […], by weight, and putting them to death on the 11th day after inoculation, weighing the tumor and calculating the rate of tumor inhibition.
(§4) (3) dosage (mg/kg/d) and means of administration:
(§5) AS: 50 mg/kg, tail vein injection
(§6) AS: 100 mg/kg, tail vein injection
(§7) AS: 200 mg/kg, tail vein injection
DDP: 1 mg/kg, tail vein injection
AS+DDP: 50 mg/kg+1 mg/kg, tail vein injection
(§8) CTX: 30 mg/kg, tail vein injection
(§9) Setting up another blank control group, tail vein injection of 0.9% NaCl 0.5 ml.
(§10) (4) Judging the result with the following formula: […]

S180 sarcoma [2] = settings: Dosage 1 mg/kg, i.v., S180 sarcoma-bearing mice; remark: listed apart in the source
Excerpt: as §1
(2) Control product: Cyclophosphamide for injection (CTX), Jiangsu Hengrui Pharmaceutical Inc. Co. Batch No.: 04123021 Dissolved by physiological saline for preparation.
as §2
(2) 50 KM mice, female, weighting 18-22 g, provided by Zhejing College of Traditional Chinese Medicine.
(1) Drawing ascites under aseptic condition from mouse bearing S180 sarcoma, diluting with physiologic saline 1:3, giving subcutaneous inoculation in the armpit of the right forelimb of the KM mice with 0.2 ml each; dividing the mice into 5 groups randomly the next day, 10 in each group.
as §3, §4, §5, §6, §7, §8, §9, §10

Lewis lung cancer = assay: Joint administration of AS and DDP, murine model of Lewis lung cancer (Example Five); format: in vivo, C57BL/6J mice; settings: Dosage 30 mg/kg, i.p., mice bearing Lewis lung cancer
Excerpt: (1) Sample: 3,4,5,4′-tetramethoxyl-α,β-diphenylethane-3′-O-sodium sulphate (AS), raw material medicine, provided by Zhejiang Cell Biomedical Research Co., Ltd., and prepared by the process in Example One. Batch No.: 061025. Dissolved by physiological saline for the concentration needed.
(2) Cisplatin: Cisplatin for injection (DDP), Qilu Pharmaceutical Co., Ltd. Batch No.: 5120282DC; Dissolved by physiological saline for preparation
(3) Control product: Cyclophosphamide for injection (CTX), Jiangsu Hengrui Pharmaceutical Inc. Co. Batch No.: 04123021. Dissolved by physiological saline for preparation.
(1) C57BL/6J mouse bearing Lewis lung cancer
(2) 70 C57BL/6J mice, female, weighing 17-21 g. Provided by the animal house of Zhejiang Cell Biomedical Research Co., Ltd.
(1) Taking tumor from C57BL/6J mouse under aseptic condition, grinding and diluting it by physiological saline 1:3 (weight:volume), and giving hypodermic inoculation 0.2 ml per mouse in the armpit of the right forelimb of each mouse. dividing the mice into 7 groups randomly the next day, 10 in each group.
(2) After inoculation, waiting till the tumor has grown to the accessible size, administering medicine according to body weight, 0.5 ml/20 g intravenous, for 11 days, putting the mice to death on the 19th after inoculation, taking out and weighing the tumor, and calculating the tumor inhibiting rate.
as §10

[3] = background statement, species and route not given; cited from earlier work

Structure (SMILES) | 0 d weight (S180 sarcoma [1]) [g] | 11 d weight without tumor (S180 sarcoma [1]) [g] | Tumor inhibiting rate % (S180 sarcoma [1]) [%] | Tumor weight (S180 sarcoma [1]) [g] | 0 d weight (S180 sarcoma [2]) [g] | 11 d weight without tumor (S180 sarcoma [2]) [g] | Tumor inhibiting rate % (S180 sarcoma [2]) [%] | Tumor weight (S180 sarcoma [2]) [g] | Tumor inhibiting rate % (Lewis lung cancer) [%] | Tumor weight (Lewis lung cancer) [g] | LD50 [3] [mg/kg]
O=P1(N(CCCl)CCCl)NCCCO1 (centres unmarked) [CTX, Cyclophosphamide, reference compound] | 21.18 ± 0.64 | 26.28 ± 1.72 | 69 | 0.90 ± 0.26 | 21.18 ± 0.64 | 26.28 ± 1.72 | 69 | 0.90 ± 0.26 | 64.3 | 1.68 ± 0.15 | 
COc1ccc(/C=C\c2cc(OC)c(OC)c(OC)c2)cc1O [Combretastatin A-4] |  |  |  |  |  |  |  |  |  |  | 500
